Literature values, collected in patent US11382901B2, “Tropicamide-based ophthalmic formulations” (FOR HEALTH PHARMA S.R.L., priority 2017, dated 2022).

Experiments:
[1] = test system: RAW 264.7 cells (murine macrophage-like)
[2] = test system: NIH/3T3 cells (murine fibroblasts)

Substance: tyloxapol
- in vitro toxicity [1]: considerable in vitro toxicity
- in vitro toxicity [2]: considerable in vitro toxicity
